One assay deals with T1, HIV-1 RT (Human immunodeficiency virus type 1 group M subtype B, UniProt P03366).
T1 construct: The heterodimeric p66/p51 RT was eluted with an imidazole gradient; p66 and p51 derived from p66 by proteolytic cleavage of the C-terminal RNAse H domain; made in house; host or cells: E. coli (M15 for the His-tagged subunits)
The assay can be described thus: biochemical. The procedure: RNA-dependent-DNA RT-polymerase activity was measured in a standard reaction assay using poly(rA)-(dT)15 as template/primer as described in Restle et al. (1990). Ten microliters of reverse transcriptase (RT) at 20 nM was incubated at 37° C. for 30 min with 20 μL of reaction buffer (50 mM Tris, pH 8.0, 80 mM KCl, 6 mM MgCl2, 5 mM DTT, 0.15 μM poly(rA-dT), 15 μM dTTP, 0.3 μCi 3H-dTTP). For peptide evaluation, HIV-1 RT was incubated with increasing concentrations of peptide inhibitors for […], and polymerase reaction was initiated by adding reaction buffer. Reactions were stopped by precipitation of nucleic acids with 5 ml of 20% trichloroacetic acid (TCA) solution for 2 h on ice, then filtered using a multiwell-sample collector (Millipore), and washed with 5% TCA solution. Filters were dried at 55° C. for 30 min and radionucleotide incorporation was determined by liquid scintillation spectrometry.
A series of peptides have been derived from Pep-A sequence (SEQ ID NO: 28), which is derived from HIV-1 reverse transcriptase. First, P1 peptide (SEQ ID NO: 1) was obtained by removing the N-terminal arginine of Pep-A. Then, additional peptides were generated by performing an alanine scan on P1. P1-derived peptides were evaluated using a standard polymerase RT assay. Reported data correspond to the mean of three separate experiments.

Another assay relates to HIV-1-LAI strain. Particulars: for IC50, block of viral proliferation (in words): peptide associated with Pep-1. The procedure: The anti-HIV activities of the peptides were assayed according to the methods described in Roisin et al. (2004). Phytohemagglutinin-P(PHA-P)-activated peripheral blood mononuclear cells (PBMC) treated by increasing concentrations of peptide (from 100 to 0.1 nM), one hour later, were infected with hundred 50% tissue culture infectious doses (TCID50) per 100,000 cells of the HIV-1-LAI strain (Barre-Sinoussi et al., 1983). This virus was amplified in vitro on PHA-P-activated PBMC. Viral stock was titrated using PHA-P-activated PBMC, and 50% TCID50 were calculated using Kärber's formula (Kärber, 1931). Samples were maintained throughout the culture, and cell supernatants were collected at day 7 post-infection and stored at −20° C. Viral replication was measured by quantifying reverse transcriptase (RT) activity in cell culture supernatants. In parallel, cytotoxicity of the compounds was evaluated in uninfected PHA-P-activated PBMC by colorimetric 3-(4-5 dimethylthiazol-2-yl)2,5diphenyl tetrazolium bromite (MTT) assay on day 7 (as described in Mossmann, 1983). Experiments were performed in triplicate and repeated with another blood donor. Data analyses were performed using SofiMax® Pro 4.6 microcomputer software: percent of inhibition of RT activity or of cell viability were plotted vs concentration and fitted with quadratic curves; 50% effective doses (ED50) and cytotoxic doses (CD50) were calculated.
In order to avoid any limitation due to the poor ability of peptides to cross cellular membranes, they were associated to the peptide-based nanoparticle delivery system Pep-1 (SEQ ID NO: 29), at a 1/10 molar ratio.

Where no end group is shown, it is not given here.

Regarding GTKALTEAIPLTEEAE [Peptide P9], at HIV-1 RT, affinity was put at a Ki of 15 ± 7.3 µM. `CC[C@H](C)[C@H](NC(=O)[C@@H](NC(=O)[C@H](CCC(=O)O)NC(=O)[C@@H](NC(=O)[C@H](CC(C)C)NC(=O)[C@H](C)NC(=O)[C@H](CCCCN)NC(=O)[C@@H](NC(=O)CN)[C@@H](C)O)[C@@H](C)O)C(C)C)C(=O)N1CCC[C@H]1C(=O)N[C@@H](CC(C)C)C(=O)N[C@H](C(=O)N[C@@H](CCC(=O)O)C(=O)N[C@@H](CCC(=O)O)C(=O)N[C@@H](C)C(=O)N[C@@H](CCC(=O)O)C(=O)O)[C@@H](C)O` [Peptide P1] gave an inhibitory constant (Ki) at HIV-1 RT of 7.5 µM. In addition, at HIV-1 RT (relative to Pep-A), the “increase in potency to inhibit RT polymerase over Pep-A” value stood at 5 fold. The “IC50, block of viral proliferation (in words)” value (“IC50, block” below) with HIV-1-LAI strain is “low μM range”.

The compound `CC[C@H](C)[C@H](NC(=O)[C@@H](NC(=O)[C@H](CCC(=O)O)NC(=O)[C@@H](NC(=O)[C@H](CC(C)C)NC(=O)[C@H](C)NC(=O)[C@H](CCCCN)NC(=O)[C@@H](NC(=O)CNC(=O)[C@@H](N)CCCNC(=N)N)[C@@H](C)O)[C@@H](C)O)C(C)C)C(=O)N1CCC[C@H]1C(=O)N[C@@H](CC(C)C)C(=O)N[C@H](C(=O)N[C@@H](CCC(=O)O)C(=O)N[C@@H](CCC(=O)O)C(=O)N[C@@H](C)C(=O)N[C@@H](CCC(=O)O)C(=O)O)[C@@H](C)O` [Pep-A, reference compound] displayed a Ki at HIV-1 RT of 35 µM. For the same compound, the “antiviral activity (in words)” value in the assay with HIV-1-LAI strain (associated to Pep-1) is “no antiviral activity”.

For `CC[C@H](C)[C@H](NC(=O)[C@@H](NC(=O)[C@H](CCC(=O)O)NC(=O)[C@@H](NC(=O)[C@H](CC(C)C)NC(=O)[C@H](C)NC(=O)[C@H](CCCCN)NC(=O)[C@@H](NC(=O)[C@H](C)N)[C@@H](C)O)[C@@H](C)O)C(C)C)C(=O)N1CCC[C@H]1C(=O)N[C@@H](CC(C)C)C(=O)N[C@H](C(=O)N[C@@H](CCC(=O)O)C(=O)N[C@@H](CCC(=O)O)C(=O)N[C@@H](C)C(=O)N[C@@H](CCC(=O)O)C(=O)O)[C@@H](C)O` [Peptide P2], at HIV-1 RT, the affinity, expressed as Ki, was 28 ± 11 µM. Consider `CC[C@H](C)[C@H](NC(=O)[C@@H](NC(=O)[C@H](CCC(=O)O)NC(=O)[C@@H](NC(=O)[C@H](CC(C)C)NC(=O)[C@H](C)NC(=O)[C@H](CCCCN)NC(=O)[C@@H](NC(=O)CN)[C@@H](C)O)[C@@H](C)O)C(C)C)C(=O)N1CCC[C@H]1C(=O)N[C@@H](CC(C)C)C(=O)N[C@H](C(=O)N[C@@H](C)C(=O)N[C@@H](CCC(=O)O)C(=O)N[C@@H](C)C(=O)N[C@@H](CCC(=O)O)C(=O)O)[C@@H](C)O` [Peptide P14], for which the inhibitory constant (Ki) on HIV-1 RT is 14 ± 3 µM. On the same count and under the same terms, next, GTKAATEVIPLT [Peptide P19]: 49 ± 9 µM.

The compound GTKAWTEVWPL [Peptide P17] came in with a Ki on HIV-1 RT of 35 ± 11 µM. Also, the “reduction of efficiency (higher Ki) relative to PAW” value on HIV-1 RT (relative to PAW) stood at 50 fold.

Consider GTKALTEVAPLTEEAE [Peptide P10], for which the Ki at HIV-1 RT is 7.3 µM. In addition, the “IC50, block” value with HIV-1-LAI strain was “low μM range”. In the case of `CC[C@H](C)[C@H](NC(=O)[C@@H](NC(=O)[C@H](CCC(=O)O)NC(=O)[C@@H](NC(=O)[C@H](CC(C)C)NC(=O)CNC(=O)[C@H](CCCCN)NC(=O)[C@@H](NC(=O)CN)[C@@H](C)O)[C@@H](C)O)C(C)C)C(=O)N1CCC[C@H]1C(=O)N[C@@H](CC(C)C)C(=O)N[C@H](C(=O)N[C@@H](CCC(=O)O)C(=O)N[C@@H](CCC(=O)O)C(=O)N[C@@H](C)C(=O)N[C@@H](CCC(=O)O)C(=O)O)[C@@H](C)O` [Peptide P5], the inhibition constant Ki on HIV-1 RT amounted to 20 ± 3.7 µM. `CC[C@H](C)[C@H](NC(=O)[C@@H](NC(=O)[C@H](CCC(=O)O)NC(=O)[C@@H](NC(=O)[C@H](CC(C)C)NC(=O)[C@H](C)NC(=O)[C@H](CCCCN)NC(=O)[C@@H](NC(=O)CN)[C@@H](C)O)[C@@H](C)O)C(C)C)C(=O)N1CCC[C@H]1C(=O)N[C@@H](CC(C)C)C(=O)N[C@H](C(=O)N[C@@H](CCC(=O)O)C(=O)N[C@@H](C)C(=O)N[C@@H](C)C(=O)N[C@@H](CCC(=O)O)C(=O)O)[C@@H](C)O` [Peptide P15] displayed an inhibition constant (Ki) on HIV-1 RT of 14 ± 2.2 µM. KWLTEWIPLTAE [Peptide P29] showed a Ki at HIV-1 RT of 1 ± 0.4 µM.

On HIV-1 RT, GTKAATEVIPLTEEAE [Peptide P6] had an inhibitory constant (Ki) of 5.7 µM. In addition, the “IC50, block” value in the assay with HIV-1-LAI strain is “low μM range”.

Turning to GAKTETLVIPETELEA [Pscramble], affinity at HIV-1 RT was put at a Ki of 61 ± 12 µM. Compound GTKWATEWAPLTAEAE [Peptide P28] had a Ki at HIV-1 RT of 2 ± 0.6 µM.

On to `CC[C@H](C)[C@H](NC(=O)[C@@H](NC(=O)[C@H](CCC(=O)O)NC(=O)[C@@H](NC(=O)[C@H](CC(C)C)NC(=O)[C@H](C)NC(=O)[C@H](CCCCN)NC(=O)[C@@H](NC(=O)CN)[C@@H](C)O)[C@@H](C)O)C(C)C)C(=O)N1CCC[C@H]1C(=O)N[C@@H](CC(C)C)C(=O)N[C@H](C(=O)O)[C@@H](C)O` [Peptide P18], for which, on HIV-1 RT, the affinity, expressed as Ki, was 53 ± 12 µM and the “inhibition of RT polymerase activity (in words)” value is listed as “does not inhibit RT polymerase activity”. `CC[C@H](C)[C@H](NC(=O)[C@@H](NC(=O)[C@H](CCC(=O)O)NC(=O)[C@@H](NC(=O)[C@H](CC(C)C)NC(=O)[C@H](C)NC(=O)[C@H](CCCCN)NC(=O)[C@H](C)NC(=O)CN)[C@@H](C)O)C(C)C)C(=O)N1CCC[C@H]1C(=O)N[C@@H](CC(C)C)C(=O)N[C@H](C(=O)N[C@@H](CCC(=O)O)C(=O)N[C@@H](CCC(=O)O)C(=O)N[C@@H](C)C(=O)N[C@@H](CCC(=O)O)C(=O)O)[C@@H](C)O` [Peptide P3]: the inhibition constant Ki on HIV-1 RT worked out at 10.3 ± 2.1 µM. Turning to GTKALTEVIPATEEAE [Peptide P12], affinity on HIV-1 RT was put at a Ki of 22 ± 3 µM. Take `CC[C@H](C)[C@H](NC(=O)[C@@H](NC(=O)[C@H](CCC(=O)O)NC(=O)[C@@H](NC(=O)[C@H](CC(C)C)NC(=O)[C@H](C)NC(=O)[C@H](C)NC(=O)[C@@H](NC(=O)CN)[C@@H](C)O)[C@@H](C)O)C(C)C)C(=O)N1CCC[C@H]1C(=O)N[C@@H](CC(C)C)C(=O)N[C@H](C(=O)N[C@@H](CCC(=O)O)C(=O)N[C@@H](CCC(=O)O)C(=O)N[C@@H](C)C(=O)N[C@@H](CCC(=O)O)C(=O)O)[C@@H](C)O` [Peptide P4]: on HIV-1 RT, the Ki came to 15 ± 2.9 µM.

At HIV-1 RT, GTKALTEVIALTEEAE [Peptide P11] came in with an inhibition constant (Ki) of 7 µM. Moreover, the “IC50, block” value in the assay on HIV-1-LAI strain is recorded as “low μM range”. As to GTKALTEVIPLAEEAE [Peptide P13], the affinity on HIV-1 RT, expressed as Ki, was 10.2 ± 2.5 µM. For GTKALAEVIPLTEEAE [Peptide P7], the affinity at HIV-1 RT, expressed as Ki, was 13.5 ± 2.1 µM.

As usually defined, the Ki is the dissociation constant of the complex between target and ligand, obtained from inhibition or displacement.

Source of the values: patent publication US20110294728A1, “Antiviral Polypeptides” (priority 2008, published 2011).
